Assay [1] deals with HCT-116 cells. The assay is described as follows: Proliferation inhibition assay of cancer cells. The conditions noted are these: Homo sapiens, 96 h, adherent culture with 10% FBS, cultured for 4 days, Cell Titer-Glo, read-out: IC50 (μM) HCT (Bulk IC50 value). In kind it is cell-based. On the procedure: HCT-116 cells were obtained from American Type Culture Collection (ATCC). HCT-116 cells were cultured at 37° C. in the presence of 5% CO2 using McCoy's 5a medium containing 10% fetal bovine serum (FBS) and 1% penicillin/streptomycin. After cells were seeded at 300-600 cells/well onto μClear-plate black 384 well (Greiner bio-one Cat. No. 781091), a test substance was added such that the final concentration of DMSO is 0.1%, and cultured for 4 days. The number of living cells was then counted using Cell Titer-Glo (registered trademark) Luminescent Cell Viability Assay (Promega) to calculate a concentration for 50% inhibition of cell proliferation of respective test substances (Bulk IC50 value; μM).
In general terms: In ATP-based viability assays light output follows the ATP content of the culture.

Assay [2] concerns HCT-116 cells. Briefly: Inhibition assay of cancer cell sphere-forming ability. The class given is cell-based. The conditions noted are these: Homo sapiens, 96 h, ultra-low attachment plate, serum-free DMEM/F12 with B27, EGF, bFGF, insulin, cultured for 4 days, Cell Titer-Glo. The protocol: HCT-116 cells were obtained from American Type Culture Collection (ATCC). HCT-116 cells were cultured at 37° C. in the presence of 5% CO2 using McCoy's 5a medium containing 10% fetal bovine serum (FBS) and 1% penicillin/streptomycin. The HCT-116 cells were seeded onto 384 Well Black Clear Bottom Ultra-Low Attachment Microplate (Corning Cat. No. 3827) using DMEM/F12 medium containing 2% B27 supplement (GIBCO), 20 ng/mL epidermal growth factor (EGF) (peprotech), 10 ng/mL basic fibroblast growth factor (bFGF) (peprotech), 5 μg/mL insulin (Sigma), and 1% penicillin/streptomycin to be 350-800 cells/well. A test substance was added so that the final concentration of DMSO is 0.1%, and then cultured for 4 days. The number of living cells was then counted using Cell Titer-Glo (registered trademark) Luminescent Cell Viability Assay (Promega) to calculate the concentration for 50% inhibition of cell proliferation of respective test substances (Sphere IC50 value; μM) (this test is a method which evaluates the functions of cancer stem cells (see Non Patent Literature 4)).

The structures appear in SMILES notation.

The term IC50 denotes the point on the concentration scale where inhibition reaches its midpoint. Regarding `CC(=O)c1cc2c(o1)C(=O)c1c(Cl)ccc(O)c1C2=O` [Example 1, 2-Acetyl-8-chloro-5-hydroxynaphtho[2,3-b]furan-4,9-dione], the IC50 with HCT-116 cells [1] is 0.63 µM; in the assay with HCT-116 cells [2], 0.24 µM.

With `CC(=O)c1cc2c(o1)C(=O)c1ccc(Br)c(O)c1C2=O` [Example 2, 2-Acetyl-6-bromo-5-hydroxynaphtho[2,3-b]furan-4,9-dione], the IC50 is 0.63 µM in the assay with HCT-116 cells [1] and 5.12 µM in the assay on HCT-116 cells [2].

`CC(=O)c1cc2c(o1)C(=O)c1c(ccc(Br)c1O)C2=O` [Example 3, 2-Acetyl-7-bromo-8-hydroxynaphtho[2,3-b]furan-4,9-dione]: the IC50 in the assay on HCT-116 cells [1] was found to be 4.93 µM; in the assay with HCT-116 cells [2], 6.39 µM.

The values above are taken from patent US20190375723A1, “New Naphtho[2,3-B]Furan Derivatives” (Boston Biomedical, Inc., priority 2016, published 2019).
